Consider one molecule from US20220408724A1, “METHOD FOR CONTROLLING METABOLISM OF BRANCHED FATTY ACID” (KAO CORPORATION, priority 2019, published 2022).

Several values for one entry are separate records, joined by “and”; a condition that tells them apart may be missing. Equal entries are not always repeated.

What all share (assay type): cell-based
Assay [1] concerns Staphylococcus aureus. Nature of the assay: Suppression of metabolism of 14-methylhexadecanoic acid on cotton fabric. Particulars: agent 250 μg/fabric g. The protocol:
(§1) A methanol solution in which 14-methylhexadecanoic acid (SIGMA-ALDRICH) was dissolved was added dropwise to 3 cm×3 cm pieces of sterilized plain-weave cotton fabric to make it adhered to the fabric. The adhesion amount of 14-methylhexadecanoic acid was set to 10 μg per piece of the plain-weave cotton fabric (100 μg/fabric g).
(§2) Further, a methanol solution in which each metabolism controlling agent was dissolved was prepared and added dropwise to the fabric to which 14-methylhexadecanoic acid adhered, and it was thereafter dried for an hour. This fabric was placed in a sterilized screw tube bottle No. 3 (Maruemu Corporation) and 100 μl of the bacterial suspension was inoculated thereto, and culture was carried out under 37° C.; conditions for 21 hours.
(§3) 3 ml of methanol was added to the screw tube bottle after culture, and extraction was carried out under ultrasonic irradiation for 30 minutes (20° C.). The extraction liquid was mixed with a (trimethylsilyl)diazomethane hexane solution (FUJIFILM Wako Pure Chemical Corporation) at 9:1 (volume ratio) and left overnight under room temperature and dark place conditions. After that, 14-methylhexadecanoic acid remaining on the fabric was quantified by GC. The quantification conditions for GC are as follows. • GC: Agilent 7890A • GC column: Agilent DB-1 30 m×250 μm×0.25 μm • Temperature rise condition: 50° C. (held for 3 minutes)-(10° C./min)-300° C. (held for 5 minutes) • Sample injection volume: 1 μl • Split ratio: 1:12 • Detector: FID
(§4) The residual amount of 14-methylhexadecanoic acid after culture on the fabric to which the metabolism controlling agent was added was quantified, and the ratio of the residual amount to that of 14-methylhexadecanoic acid in the case of adding no metabolism controlling agent (control) was calculated as a metabolism suppression rate (%). The higher a numerical value thereof is, the more the metabolism is suppressed. Note that the metabolism suppression rate was determined by the following formula:
(§5) Metabolism suppression rate(%)=[1−(100−A)/(100−B)]×100 • A: residual amount of 14-methylhexadecanoic acid of example or comparative example (μg/fabric g) • B: residual amount of 14-methylhexadecanoic acid of control (μg/fabric g)
(§6) The metabolism of 14-methylhexadecanoic acid by bacteria of the genus Staphylococcus (Staphylococcus aureus) was tested in the same manner as in example 1.
(§7) In this example, Staphylococcus aureus (strain isolated from clothing) was used as a microorganism.
(§8) Further, in this example, a bacterial suspension of 10^7 (CFU/ml) prepared by using an NB liquid medium diluted to 1/10 with ion exchange water was used as a bacterial suspension.

Assay [2] has as its system Escherichia coli (NBRC3972). The assay is described as above. The protocol:
as §1, §2, §3, §4, §5
(§9) The metabolism of 14-methylhexadecanoic acid by bacteria of the genus Escherichia (Escherichia coli) was tested in the same manner as in example 1.
(§10) In this example, Escherichia coli (NBRC3972) was used as a microorganism.
(§11) Further, in this example, a bacterial suspension of 10^6 (CFU/ml) prepared by using an NB liquid medium diluted to 1/10 with ion exchange water was used as a bacterial suspension.
(§12) Note that, in this example, C12OH (1-dodecanol) was used as the metabolism controlling agent.

Assay [3] relates to Escherichia coli (NBRC3972). Kind of assay: Measurement of viable bacterial count on fabric. The protocol:
(§13) After culture on fabric prepared in the same manner as in the above (1), 9 mL of an LP diluent (manufactured by NIHON PHARMACEUTICAL CO., LTD.) was added, and the extraction of the bacteria was carried out under ultrasound for 10 minutes. The extraction liquid was poured and mixed to an SCD-LP agar medium (NIHON PHARMACEUTICAL CO., LTD.), and culture was thereafter carried out at 37° C.; for a day. The number of colonies obtained on each piece of the fabric was counted, and a common logarithm value thereof was measured as the viable bacterial count. […] In addition, the […], the more the viable bacterial count of the microorganism is maintained.
as §9, §10, §11, §12

Assay [4] has as its system Staphylococcus aureus. Nature of the assay: Measurement of viable bacterial count on fabric. The protocol: as §13, §6, §7, §8, §12
Assay [5] relates to Escherichia coli (NBRC3972). Kind of assay: Suppression of metabolite 4-methylhexanoic acid from 14-methylhexadecanoic acid. The protocol: After culture on fabric prepared in the same manner as in the above (1), 3 ml of methanol was added, and extraction was carried out under ultrasonic irradiation for 30 minutes (20° C.). The extraction liquid was mixed with (a 1000 ppm methanol solution of) an ADAM reagent of Funakoshi Co., Ltd. at 1:1 (volume ratio) and left overnight under room temperature and dark place conditions. After that, 4-methyl-3-hexenoic acid as a metabolite from 14-methylhexadecanoic acid was quantified by HPLC. The quantification conditions are as follows.
The production amount of 4-methyl-3-hexenoic acid after culture on the fabric to which each metabolism controlling agent was added was quantified, and the ratio of the production amount to that of 4-methyl-3-hexenoic acid in the case of adding no metabolism controlling agent (control) was calculated as a metabolite suppression rate (%). The higher a numerical value thereof is, the more the metabolism is suppressed. Note that the metabolite suppression rate was determined by the following formula:
Metabolite suppression rate(%)=100×[(D−C)/D] • C: production amount of metabolite of example or comparative example (μg/fabric g) • D: production amount of metabolite of control (μg/fabric g)
as §9, §10, §11
Further, in this example, 4-methylhexanoic acid was quantified as a metabolite from 14-methylhexadecanoic acid, and the metabolite suppression rate was determined in the same manner as in example 1.
as §12

As for `CCCCCCCCCCCCO` [Example C12OH, 1-dodecanol], the “Metabolism suppression rate (%)” value is 75% in assay [1]; 39% and 21% in assay [2] (agent 500 μg/fabric g); 90% and 61% in assay [2] (agent 1000 μg/fabric g); 66% in assay [2] (agent 2000 μg/fabric g); 73% in assay [2] (agent 3000 μg/fabric g). Also, the “Bacterial count (Log (cfu/fabric cm^2))” value in assay [3] (agent 500 μg/fabric g) was 6.3 Log (cfu/fabric cm^2); in assay [3] (agent 1000 μg/fabric g) it was 6.3 Log (cfu/fabric cm^2) and 6.4 Log (cfu/fabric cm^2); in assay [3] (agent 2000 μg/fabric g), 6.3 Log (cfu/fabric cm^2); in assay [3] (agent 3000 μg/fabric g), 6.3 Log (cfu/fabric cm^2); in assay [4] (agent 100 μg/fabric g) it was 6.4 Log (cfu/fabric cm^2); in assay [4] (agent 500 μg/fabric g), 6.2 Log (cfu/fabric cm^2). The “Metabolite suppression rate (%)” value in assay [5] (agent 500 μg/fabric g) is 74% and 41%; in assay [5] (agent 1000 μg/fabric g) it was 93% and 65%; in assay [5] (agent 2000 μg/fabric g) it was 77%; in assay [5] (agent 3000 μg/fabric g), 80%.
